In series [1] the test system is bicistronic HCV replicon (replicon RNA, GenBank Accession No. AJ242654). Kind of series: HCV Replicon Assay. Format: cell-based. As to conditions: Hepatitis C virus, 72 h, read-out: Replicon IC50. On the technique in general: In antiviral work, replicon cells carry a viral genome segment that copies itself.

A word on the melting point: it is the temperature, or range, at which the solid turns liquid. Usually IC50 stands for the point on the concentration scale where inhibition reaches its midpoint.

A value given as a limit tells only on which side of the number the result lay.

Regarding `CC(C)(C)NS(=O)(=O)c1ccc(-c2c(C#N)c3cc(Cl)ccc3n2C2CCC2)nc1` [compound 15, N-tert-butyl-6-(5-chloro-3-cyano-1-cyclobutyl-1H-indol-2-yl)pyridine-3-sulfonamide], the melting point was in the range of 195 to 197 °C. In addition, in series [1], the IC50 was in the range of 500 to 2000 nM.

As to `C[C@H](NS(=O)(=O)c1cnc(-c2c(C#N)c3ccc(OC(F)F)cc3n2C2CCC2)nc1)C1CC1` [compound 130, 2-[3-cyano-1-cyclobutyl-6-(difluoromethoxy)-1H-indol-2-yl]-N-[(1S)-1-cyclopropylethyl]pyrimidine-5-sulfonamide], the melting point lay in the range of 172 to 174 °C. Further, in series [1], the IC50 is < 500 nM.

Compound `C[C@H](NS(=O)(=O)c1ccc(-c2c(C#N)c3ccc(OC(F)F)cc3n2C2CCCC2)nc1)C1CC1` [compound 174, 6-[3-cyano-1-cyclopentyl-6-(difluoromethoxy)-1H-indol-2-yl]-N-[(1S)-1-cyclopropylethyl]pyridine-3-sulfonamide] yielded a melting point of 176 to 182 °C. Further, the IC50 in series [1] was < 500 nM.

`CC(C)(C)S(=O)(=O)Nc1ccc(-c2c(C(N)=O)c3cc(F)c(OC(F)F)cc3n2C2CCCCC2)cn1` [compound 1063, 2-{6-[(tert-butylsulfonyl)amino]pyridin-3-yl}-1-cyclohexyl-6-(difluoromethoxy)-5-fluoro-1H-indole-3-carboxamide] came in with a melting point of 296 to 297 °C. Besides, the IC50 in series [1] is < 500 nM.

Compound `C[C@H](NS(=O)(=O)c1cnc(-c2c(C#N)c3ccc(Cl)cc3n2C2CCCC2)nc1)C(F)(F)F` [compound 417, 2-(6-chloro-3-cyano-1-cyclopentyl-1H-indol-2-yl)-N-[(2S)-1,1,1-trifluoropropan-2-yl]pyrimidine-5-sulfonamide] registered a melting point of 220 to 224 °C. The IC50 in series [1] fell in the range of 500 to 2000 nM.

Compound `CC(C)(C)S(=O)(=O)Nc1ccc(-c2c(C#N)c3ccc(OC(F)F)cc3n2C2CCC2)cn1` [compound 295, N-{5-[3-cyano-1-cyclobutyl-6-(difluoromethoxy)-1H-indol-2-yl]pyridin-2-yl}-2-methylpropane-2-sulfonamide] showed a melting point of 239 to 240 °C. In addition, the IC50 in series [1] is 2000 to 5000 nM.

As for `CCc1cc2c(cc1F)c(C#N)c(-c1ccc(S(=O)(=O)N[C@@H](C)C(F)(F)F)cn1)n2-c1cc(OC)ccn1` [compound 955, 6-[3-cyano-6-ethyl-5-fluoro-1-(4-methoxypyridin-2-yl)-1H-indol-2-yl]-N-[(2S)-1,1,1-trifluoropropan-2-yl]pyridine-3-sulfonamide], the melting point lay in the range of 227 to 233 °C. Besides, in series [1], the IC50 was < 500 nM.

Regarding `CC(C)(C)S(=O)(=O)Nc1ccc(-c2c(C(N)=O)c3c(F)cc(C4CC4)cc3n2C2CCCCC2)cn1` [compound 1088, 2-{6-[(tert-butylsulfonyl)amino]pyridin-3-yl}-1-cyclohexyl-6-cyclopropyl-4-fluoro-1H-indole-3-carboxamide], the melting point lay in the range of 290 to 294 °C. For the same compound, the IC50 in series [1] is < 500 nM.

`C[C@@H](NS(=O)(=O)c1ccc(-c2c(C#N)c3ccc(Cl)cc3n2C2CCC2)nc1)C(F)(F)F` [compound 222, 6-(6-chloro-3-cyano-1-cyclobutyl-1H-indol-2-yl)-N-[(2R)-1,1,1-trifluoropropan-2-yl]pyridine-3-sulfonamide] gave a melting point of 202 to 206 °C. Also, the IC50 in series [1] was < 500 nM.

The compound `CCc1cc2c(cc1F)c(C#N)c(-c1ccc(S(=O)(=O)N[C@@H](C)C(F)(F)F)cn1)n2C1CCC1` [compound 640, 6-(3-cyano-1-cyclobutyl-6-ethyl-5-fluoro-1H-indol-2-yl)-N-[(2S)-1,1,1-trifluoropropan-2-yl]pyridine-3-sulfonamide] had a melting point of 205 to 206 °C. In series [1], the IC50 is < 500 nM.

`Cc1cc2c(cc1F)c(C(N)=O)c(-c1ccc(S(=O)(=O)N[C@@H](C)C(F)(F)F)cn1)n2C1CCCC1` [compound 700, 1-cyclopentyl-5-fluoro-6-methyl-2-(5-{[(2S)-1,1,1-trifluoropropan-2-yl]sulfamoyl}pyridin-2-yl)-1H-indole-3-carboxamide] registered a melting point of 244 to 246 °C. In series [1], the IC50 was < 500 nM.

The compound `C[C@@H](NS(=O)(=O)c1ccc(-c2c(C#N)c3cc(F)ccc3n2C2C=CCCC2)nc1)C(F)(F)F` (stereo partly drawn) [compound 412, 6-[3-cyano-1-(cyclohex-2-en-1-yl)-5-fluoro-1H-indol-2-yl]-N-[(2R)-1,1,1-trifluoropropan-2-yl]pyridine-3-sulfonamide] had a melting point of 187 to 188 °C. The IC50 in series [1] was < 500 nM.

In turn, `CCc1cc2c(cc1F)c(C#N)c(-c1ccc(S(=O)(=O)N[C@@H](C)C(F)(F)F)cn1)n2-c1ccc(C(F)(F)F)cc1` [compound 1006, 6-{3-cyano-6-ethyl-5-fluoro-1-[4-(trifluoromethyl)phenyl]-1H-indol-2-yl}-N-[(2S)-1,1,1-trifluoropropan-2-yl]pyridine-3-sulfonamide] showed a melting point of 276 to 282 °C. In addition, the IC50 in series [1] is 500 to 2000 nM.

For the compound `Cc1cc2c(cc1F)c(C#N)c(-c1ccc(S(=O)(=O)N[C@@H](C)C(F)(F)F)cn1)n2-c1cccs1` [compound 990, 6-[3-cyano-5-fluoro-6-methyl-1-(thiophen-2-yl)-1H-indol-2-yl]-N-[(2S)-1,1,1-trifluoropropan-2-yl]pyridine-3-sulfonamide], the melting point was in the range of 233 to 240 °C. In addition, the IC50 in series [1] was < 500 nM.

In turn, `Cc1cc2c(C#N)c(-c3ncc(S(=O)(=O)NC(C)C)cn3)n(C3CCC3)c2cc1Cl` [compound 507, 2-(6-chloro-3-cyano-1-cyclobutyl-5-methyl-1H-indol-2-yl)-N-(propan-2-yl)pyrimidine-5-sulfonamide] displayed a melting point of 217 to 218 °C. The IC50 in series [1] was in the range of 500 to 2000 nM.

`N#Cc1c(-c2ncc(S(=O)(=O)NC(CF)CF)cn2)n(CC2CC2)c2cc(F)ccc12` [compound 164, 2-[3-cyano-1-(cyclopropylmethyl)-6-fluoro-1H-indol-2-yl]-N-(1,3-difluoropropan-2-yl)pyrimidine-5-sulfonamide] registered a melting point of 176 to 178 °C. Also, in series [1], the IC50 lay within 500 to 2000 nM.

In the case of `Cc1cc2c(cc1F)c(C#N)c(-c1ccc(S(=O)(=O)N[C@H](C)C(F)(F)F)cn1)n2C1CCCCC1` [compound 680, 6-(3-cyano-1-cyclohexyl-5-fluoro-6-methyl-1H-indol-2-yl)-N-[(2R)-1,1,1-trifluoropropan-2-yl]pyridine-3-sulfonamide], the melting point was in the range of 224 to 229 °C. In addition, in series [1], the IC50 was < 500 nM.

As for `Cc1cc2c(cc1F)c(C#N)c(-c1ccc(S(=O)(=O)N[C@@H](C)C(F)(F)F)cn1)n2-c1cc(F)cc(F)n1` [compound 1001, 6-[3-cyano-1-(4,6-difluoropyridin-2-yl)-5-fluoro-6-methyl-1H-indol-2-yl]-N-[(2S)-1,1,1-trifluoropropan-2-yl]pyridine-3-sulfonamide], the melting point is 190.2 to 196.8 °C. For the same compound, the IC50 in series [1] is < 500 nM.

For `C[C@@H](NS(=O)(=O)c1ccc(-c2c(C#N)c3cc(C(F)F)ccc3n2C2CCCC2)nc1)C(F)(F)F` [compound 538, 6-[3-cyano-1-cyclopentyl-5-(difluoromethyl)-1H-indol-2-yl]-N-[(2R)-1,1,1-trifluoropropan-2-yl]pyridine-3-sulfonamide], the melting point is 186 to 188 °C. Moreover, in series [1], the IC50 is < 500 nM.

`C[C@H](NS(=O)(=O)c1cnc(-c2c(C#N)c3cc(Cl)ccc3n2C2CCCC2)nc1)C(F)(F)F` [compound 419, 2-(5-chloro-3-cyano-1-cyclopentyl-1H-indol-2-yl)-N-[(2S)-1,1,1-trifluoropropan-2-yl]pyrimidine-5-sulfonamide] returned a melting point of 243 to 249 °C. The IC50 in series [1] is 500 to 2000 nM.

In turn, `C[C@H](NS(=O)(=O)c1cnc(-c2c(C#N)c3ccc(F)cc3n2CC2CC2)nc1)C1CC1` [compound 498, 2-[3-cyano-1-(cyclopropylmethyl)-6-fluoro-1H-indol-2-yl]-N-[(1S)-1-cyclopropylethyl]pyrimidine-5-sulfonamide] came in with a melting point of 198 to 199 °C. Also, the IC50 in series [1] was in the range of 500 to 2000 nM.

The compound `Cc1ccc2c(c1)c(C#N)c(-c1ccc(S(=O)(=O)N[C@H](C)C(F)(F)F)cn1)n2C1CCC1` [compound 484, 6-(3-cyano-1-cyclobutyl-5-methyl-1H-indol-2-yl)-N-[(2R)-1,1,1-trifluoropropan-2-yl]pyridine-3-sulfonamide] registered a melting point of 134 to 142 °C. In addition, the IC50 in series [1] is < 500 nM.

Consider `C[C@@H](NS(=O)(=O)c1ccc(-c2c(C#N)c3ccc(OC(F)F)cc3n2-c2ccccn2)nc1)C(F)(F)F` [compound 534, 6-[3-cyano-6-(difluoromethoxy)-1-(pyridin-2-yl)-1H-indol-2-yl]-N-[(2R)-1,1,1-trifluoropropan-2-yl]pyridine-3-sulfonamide], for which the melting point lay within 159 to 161 °C. The IC50 in series [1] was < 500 nM.

Turning to `Cc1ccc2c(c1)c(C#N)c(-c1ccc(S(=O)(=O)NC(CF)CF)cn1)n2C1CCCCC1` [compound 199, 6-(3-cyano-1-cyclohexyl-5-methyl-1H-indol-2-yl)-N-(1,3-difluoropropan-2-yl)pyridine-3-sulfonamide], the melting point lay in the range of 210 to 215 °C. Moreover, in series [1], the IC50 was < 500 nM.

`N#Cc1c(-c2ncc(S(=O)(=O)NC(CF)CF)cn2)n(-c2ccccn2)c2cc(Cl)ccc12` [compound 450, 2-[6-chloro-3-cyano-1-(pyridin-2-yl)-1H-indol-2-yl]-N-(1,3-difluoropropan-2-yl)pyrimidine-5-sulfonamide] gave a melting point of 234 to 235 °C. In series [1], the IC50 is < 500 nM.

For `Cc1cnc(-n2c(-c3ccc(S(=O)(=O)N[C@@H](C)C(F)(F)F)cn3)c(C#N)c3cc(F)c(C)cc32)nc1` [compound 925, 6-[3-cyano-5-fluoro-6-methyl-1-(5-methylpyrimidin-2-yl)-1H-indol-2-yl]-N-[(2S)-1,1,1-trifluoropropan-2-yl]pyridine-3-sulfonamide], the melting point was 179 to 184 °C. In addition, the IC50 in series [1] was < 500 nM.

The values are drawn from patent US8735414B2 (priority 2009, dated 2014).
